Measured values reported in patent US20080269213A1, “8-Hydroxyquinoline compounds and methods thereof” (Wyeth, priority 2006, published 2008).
Where two headings read alike, the source gives them in different places. Blank lines part the entries; values can stand above or below the compound they belong to.

Key:
Agg-1 = molecular target: T1, Agg-1 (Homo sapiens, UniProt O75173); assay: Agg-1 FRET assay; type: biochemical; conditions: for inhibition at 66.7 µM: % inhibition @ 66.7 μM
T1 sequence (O75173 213-837): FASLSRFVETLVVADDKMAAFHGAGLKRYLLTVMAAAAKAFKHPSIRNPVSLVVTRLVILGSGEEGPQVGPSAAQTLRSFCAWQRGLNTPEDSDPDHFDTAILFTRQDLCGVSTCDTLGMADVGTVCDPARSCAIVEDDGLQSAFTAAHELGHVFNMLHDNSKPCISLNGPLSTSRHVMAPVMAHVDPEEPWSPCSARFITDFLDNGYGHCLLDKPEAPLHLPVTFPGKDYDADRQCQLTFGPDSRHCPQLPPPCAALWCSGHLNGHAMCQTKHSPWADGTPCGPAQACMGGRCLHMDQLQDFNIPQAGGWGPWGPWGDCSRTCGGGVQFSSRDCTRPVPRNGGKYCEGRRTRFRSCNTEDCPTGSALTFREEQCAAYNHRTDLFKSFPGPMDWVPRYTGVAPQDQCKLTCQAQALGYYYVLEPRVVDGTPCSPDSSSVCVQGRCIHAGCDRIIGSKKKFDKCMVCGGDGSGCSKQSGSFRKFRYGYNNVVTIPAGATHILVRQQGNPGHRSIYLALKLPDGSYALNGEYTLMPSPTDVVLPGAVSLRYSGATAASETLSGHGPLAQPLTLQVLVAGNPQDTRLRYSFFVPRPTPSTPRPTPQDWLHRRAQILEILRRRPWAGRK
Excerpt: The Agg-1/Agg-2 FRET data for N-[(8-hydroxyquinolin-2-yl)(phenyl)methyl]-2-phenoxyacetamide and 2-{[(phenoxyacetyl)amino](phenyl)methyl}quinolin-8-yl phenoxyacetate is presented in Table 1.

[1] = molecular target: T2, recombinant human Aggrecanase-2 Agg2-Phe628 (Homo sapiens, UniProt Q9UNA0); assay: Aggrecanase 2 in vitro enzyme assay (Agg-2 FRET, quenched fluorescent peptide substrate); type: biochemical; design: purified recombinant human Aggrecanase-2 Agg2-Phe628 (MW=41,737); This is a truncated form of full-length human aggrecanase-2; made in house; host or cells: CHO cells
T2 sequence (Q9UNA0 262-628 limits assumed): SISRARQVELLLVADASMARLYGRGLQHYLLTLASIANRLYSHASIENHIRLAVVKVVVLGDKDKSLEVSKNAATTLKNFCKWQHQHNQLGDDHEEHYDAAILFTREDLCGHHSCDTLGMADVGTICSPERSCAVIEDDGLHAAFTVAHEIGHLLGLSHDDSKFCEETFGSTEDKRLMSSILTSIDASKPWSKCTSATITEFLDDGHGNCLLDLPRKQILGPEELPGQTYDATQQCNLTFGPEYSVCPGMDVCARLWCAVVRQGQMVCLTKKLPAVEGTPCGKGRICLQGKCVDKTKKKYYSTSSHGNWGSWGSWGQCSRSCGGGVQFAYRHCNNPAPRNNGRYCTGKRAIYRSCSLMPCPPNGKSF
Experimental: A continuous assay was used in which the substrate was a synthetic peptide containing a fluorescent group (o-aminobenzyl, Abz), which was quenched by energy transfer to a 2,4-dinitrophenyl group (Dnp). The buffer used in this assay was 50 mM HEPES, pH 7.5, 100 mM NaCl, 5 mM CaCl2, 0.1% CHAPS, 5% glycerol. The source of enzyme was purified recombinant human Aggrecanase-2 Agg2-Phe628 (MW=41,737). This is a truncated form of full-length human aggrecanase-2 that was expressed in CHO cells and purified. The final concentration of Agg2-Phe628 was 0.5 μg/ml. […] It is a synthetic peptide that is designed after a portion of brevican, one of the naturally occurring substrates of Aggrecanase-2, of the sequence Abz-[…]-Dap(Dnp)-KK—NH2 (mass=1740). The concentration of this substrate stock was spectrophotometrically determined using the extinction coefficient at 354 nm of 18,172 M^−1cm^−1. […] The final concentration of substrate in the assay was 25 μM.
Test compounds (in duplicate) were serially diluted from 2 mM to 0.01 μM in 100% DMSO. The total reaction volume was 100 μl. The buffer and enzyme were added first followed by addition of 10× inhibitor from the dilution plate. Enzyme and buffer alone samples were included in order to obtain the maximal rate of substrate cleavage. […] Then substrate was added, mixed and the reaction monitored for 40 min at 30° C. in kinetic mode using λex: 340 nm and % λem: 420 (GeminiXS Molecular Devices).

[2] = IC50, read-out: Agg-1 IC50 (μM) or % Inhibition
[3] = read-out: Agg-2 IC50 (μM) or % Inhibition
[4] = read-out: Agg-1 IC50 (μM) or % Inhibition
[5] = IC50, read-out: Agg-2 IC50 (μM) or % Inhibition
[6] = read-out: Agg-2 FRET Median IC50

Compound: O=C(COc1ccccc1)NC(Cc1ccc2cccnc2c1O)c1ccccc1 (stereo not drawn)
IC50 (Agg-1; [2]): 2.1 µM
inhibition at 100 µM [1, 3]: 59%

Compound: O=C(COc1ccccc1)NC(Cc1cc(Cl)c2cccnc2c1O)c1ccc2c(c1)OCO2 (stereo not drawn)
inhibition at 22 µM (Agg-1; [4]): 67%
IC50 [1, 5]: 9.6 µM

Compound: O=C(NC(Cc1cc(Cl)c2cccnc2c1O)c1ccc(CN2CCOCC2)cc1)c1ccc(-c2ccccc2)cc1 (stereo not drawn)
inhibition at 22 µM (Agg-1; [4]): 59%
inhibition at 22 µM [1, 3]: 50%

Compound: Cc1ccc(-c2cccc(C(Cc3cc(Cl)c4cccnc4c3O)NC(=O)COCc3ccccc3)c2)s1 (stereo not drawn)
inhibition at 66.7 µM (Agg-1; [4]): 48%
inhibition at 22 µM [1, 3]: 56%

Compound: Cc1ccc(-c2cccc(C(Cc3cc(Cl)c4cccnc4c3O)NC(=O)C(C)(C)Oc3ccc(Cl)cc3)c2)s1 (stereo not drawn)
inhibition at 66.7 µM (Agg-1; [4]): 47%
inhibition at 22 µM [1, 3]: 51%

Compound: Cc1ccc(-c2cccc(C(Cc3cc(Cl)c4cccnc4c3O)NC(=O)COc3ccccc3)c2)s1 (stereo not drawn)
inhibition at 66.7 µM (Agg-1; [4]): 42%
inhibition at 22 µM [1, 3]: 58%

Compound: Cc1ccc(-c2cccc(C(Cc3cc(Cl)c4cccnc4c3O)NC(=O)COc3ccc(C(C)(C)C)cc3)c2)s1 (stereo not drawn)
inhibition at 22 µM (Agg-1; [4]): 46%
inhibition at 200 µM [1, 3]: 56%

Compound: O=C(COc1ccccc1)NC(Cc1cc(Cl)c2cccnc2c1O)c1cccc(CN2CCCC2)c1 (stereo not drawn)
inhibition at 200 µM (Agg-1; [4]): 56%
IC50 [1, 5]: 20 µM

Compound: CC(C)(Oc1ccc(Cl)cc1)C(=O)NC(Cc1cc(Cl)c2cccnc2c1O)c1cccc(CN2CCCC2)c1 (stereo not drawn)
inhibition at 66.7 µM (Agg-1; [4]): 50%
inhibition at 22 µM [1, 3]: 49%

Compound: CN(C)Cc1ccc(C(Cc2cc(Cl)c3cccnc3c2O)NC(=O)COc2ccccc2)o1 (stereo not drawn)
IC50 (Agg-1; [2]): 16.8 µM
inhibition at 200 µM [1, 3]: 68%

Compound: CC(C)C(=O)NC(Cc1cc(Cl)c2cccnc2c1O)c1ccc(CN(C)C)o1 (stereo not drawn)
inhibition at 200 µM (Agg-1; [4]): 56%
inhibition at 200 µM [1, 3]: 49%

Compound: O=C(COc1ccc(-c2ccccc2)cc1)NC(c1ccccc1Cl)c1cc(Cl)c2cccnc2c1O (stereo not drawn) [2-(biphenyl-4-yloxy)-N-[(5-chloro-8-hydroxyquinolin-7-yl)(2-chlorophenyl)methyl]acetamide]
IC50 (Agg-1; read-out: Agg1 IC50): 66 to 200 µM
IC50 ([1]; read-out: Agg2 IC50): 3.3 µM

Compound: O=C(COc1ccc(-c2ccccc2)cc1)NC(c1ccccc1)c1cc(Cl)c2cccnc2c1O (stereo not drawn) [2-(biphenyl-4-yloxy)-N-[(5-chloro-8-hydroxyquinolin-7-yl)(phenyl)methyl]acetamide]
IC50 (Agg-1; read-out: Agg1 IC50): 7.4 to 20 µM
IC50 ([1]; read-out: Agg2 IC50): 2 µM

Compound: N-[(5-chloro-8-hydroxyquinolin-7-yl)(4-methoxyphenyl)methyl]-2-(4-methylphenoxy)acetamide [Example 80]
IC50 [1, 6]: 0.774 µM

Compound: N-[(8-hydroxyquinolin-7-yl)(4-methoxyphenyl)methyl]-2-(4-phenoxyphenoxy)acetamide [Example 76]
IC50 [1, 6]: 3.22 µM

More lines, now with the values ahead:

inhibition at 667 µM (Agg-1; @ 667000 nM, read-out: Agg1 %): 48%
IC50 ([1]; read-out: Agg2 IC50): 2.3 µM
IC50 [1, 6]: 2.34 µM
Compound: COc1ccccc1C(NC(=O)COc1ccccc1)c1cc(Cl)c2cccnc2c1O (stereo not drawn) [Example 122, N-[(5-chloro-8-hydroxyquinolin-7-yl)(2-methoxyphenyl)methyl]-2-phenoxyacetamide]

inhibition at 22 µM (Agg-1; @ 22000 nM, read-out: Agg1 %): 44%
IC50 ([1]; read-out: Agg2 IC50): 1.8 µM
Compound: COc1cccc(C(NC(=O)COc2ccccc2)c2cc(Cl)c3cccnc3c2O)c1 (stereo not drawn) [Example 126, N-[(5-chloro-8-hydroxyquinolin-7-yl)(3-methoxyphenyl)methyl]-2-phenoxyacetamide]

inhibition at 22 µM (Agg-1; @ 22000 nM, read-out: Agg1 %): 41%
inhibition at 33 µM ([1]; @ 33000 nM): 50%
IC50 [1, 6]: 1.45 µM
Compound: CCOC(=O)Cc1cccc(C(NC(=O)COc2ccccc2)c2cc(Cl)c3cccnc3c2O)c1 (stereo not drawn) [Example 127, ethyl(3-{(5-chloro-8-hydroxyquinolin-7-yl)[(phenoxyacetyl)amino]methyl}phenyl)acetate]

inhibition at 7.4 µM (Agg-1; @ 7400 nM, read-out: Agg1 %): 57%
IC50 ([1]; read-out: Agg2 IC50): 1.1 µM
Compound: COc1ccc(Oc2cccc(C(NC(=O)COc3ccccc3)c3cc(Cl)c4cccnc4c3O)c2)cc1 (stereo not drawn) [Example 128, N-{(5-chloro-8-hydroxyquinolin-7-yl)[3-(4-methoxyphenoxy)phenyl]methyl}-2-phenoxyacetamide]

inhibition at 22 µM (Agg-1; @ 22000 nM, read-out: Agg1 %): 51%
inhibition at 11 µM ([1]; @ 11000 nM): 52%
Compound: O=C(COc1ccccc1)NC(c1cccc(Oc2ccc(Cl)cc2)c1)c1cc(Cl)c2cccnc2c1O (stereo not drawn) [Example 129, N-{(5-chloro-8-hydroxyquinolin-7-yl)[3-(4-chlorophenoxy)phenyl]methyl}-2-phenoxyacetamide]

inhibition at 22 µM (Agg-1; @ 22000 nM, read-out: Agg1 %): 52%
inhibition at 7.4 µM ([1]; @ 7400 nM): 58%
Compound: Cc1ccc(Oc2cccc(C(NC(=O)COc3ccccc3)c3cc(Cl)c4cccnc4c3O)c2)cc1 (stereo not drawn) [Example 130, N-{(5-chloro-8-hydroxyquinolin-7-yl)[3-(4-methylphenoxy)phenyl]methyl}-2-phenoxyacetamide]

IC50 (Agg-1; read-out: Agg1 IC50): > 67 µM
IC50 ([1]; read-out: Agg2 IC50): 4.1 µM
Compound: O=C(COc1ccccc1)NC(c1cccc(Oc2ccccc2)c1)c1cc(Cl)c2cccnc2c1O (stereo not drawn) [Example 131, N-[(5-chloro-8-hydroxyquinolin-7-yl)(3-phenoxyphenyl)methyl]-2-phenoxyacetamide]

inhibition at […] (Agg-1; @ 2500 nM, read-out: Agg1 %): 54%
IC50 ([1]; read-out: Agg2 IC50): 1.65 µM
Compound: CN(C)c1ccc(C(NC(=O)COc2ccccc2)c2cc(Cl)c3cccnc3c2O)cc1 (stereo not drawn) [Example 134, N-{(5-chloro-8-hydroxyquinolin-7-yl)[4-(dimethylamino)phenyl]methyl}-2-phenoxyacetamide]

IC50 (Agg-1; read-out: Agg1 IC50): 22 to 67 µM
IC50 ([1]; read-out: Agg2 IC50): 2.8 µM
Compound: CCN(CC)c1ccc(C(NC(=O)COc2ccccc2)c2cc(Cl)c3cccnc3c2O)cc1 (stereo not drawn) [Example 135, N-{(5-chloro-8-hydroxyquinolin-7-yl)[4-(diethylamino)phenyl]methyl}-2-phenoxyacetamide]

IC50 (Agg-1; read-out: Agg1 IC50): 11.4 µM
Compound: O=C(COc1ccccc1)NC(c1ccccc1Cl)c1cc([N+](=O)[O-])c2cccnc2c1O (stereo not drawn) [N-[(2-chlorophenyl)(8-hydroxy-5-nitroquinolin-7-yl)methyl]-2-phenoxyacetamide]

inhibition at 22.2 µM (Agg-1; @ 22200 nM, read-out: Agg1 %): 46%
Compound: O=C(COc1ccccc1)NC(c1ccccc1F)c1cc(Cl)c2cccnc2c1O (stereo not drawn) [N-[(5-chloro-8-hydroxyquinolin-7-yl)(2-fluorophenyl)methyl]-2-phenoxyacetamide]

IC50 (Agg-1; read-out: Agg1 IC50): > 20 µM
Compound: O=C(COc1ccccc1)NC(c1ccc([N+](=O)[O-])cc1)c1cc(Cl)c2cccnc2c1O (stereo not drawn) [N-[(5-chloro-8-hydroxyquinolin-7-yl)(4-nitrophenyl)methyl]-2-phenoxyacetamide]

IC50 (Agg-1; read-out: Agg1 IC50): > 22 µM
Compound: O=C(COc1ccccc1)NC(c1ccccc1)c1cc(Cl)c2cccnc2c1O (stereo not drawn) [N-[(5-chloro-8-hydroxyquinolin-7-yl)(phenyl)methyl]-2-phenoxyacetamide]

IC50 (Agg-1; read-out: Agg1 IC50): 19.3 µM
Compound: O=C(COc1ccccc1)NC(c1ccccc1)c1cc([N+](=O)[O-])c2cccnc2c1O (stereo not drawn) [N-[(8-hydroxy-5-nitroquinolin-7-yl)(phenyl)methyl]-2-phenoxyacetamide]

inhibition at 22 µM (Agg-1; @ 22000 nM, read-out: Agg1 %): 52%
Compound: C=CCOc1ccc(C(NC(=O)COc2ccccc2)c2cc(Cl)c3cccnc3c2O)cc1 (stereo not drawn) [N-[[4-(allyloxy)phenyl](5-chloro-8-hydroxyquinolin-7-yl)methyl]-2-phenoxyacetamide]
